This is an account of results in US10519177B2, “Heterocyclic compounds and uses thereof” (Plexxikon Inc., priority 2013, dated 2019).

One assay concerns MV-4-11 cells. Put plainly: Oncology cell growth assay MV-4-11 (CellTiter Glo). As to conditions: Homo sapiens, MV4-11, 72 h; MV-4-11, 3d growth; read-out: Cell activity (IC50 μM) MV-4-11 3d-Growth. Format: cell-based. In short, it runs like this: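 MV-4-11 AML cells (MLL-AF4), 3000 per well, exposed to 8-point 1:3 compound titration from 10 μM top concentration (0.2% DMSO) for 72 h. Viability by CellTiter Glo luminescence, normalized to DMSO controls; pIC50 from four-parameter curve fit.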

In the next assay the target is BRD4-BD12 (1-477) (Homo sapiens (Human), UniProt O60885). Put plainly: Alphascreen binding assay BRD4-BD12. Particulars: BRD4(1 2) H4; read-out: Biochemical activity (IC50 μM) BRD4(1 2) H4. The method in brief: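 First, compound was preincubated 1 h at room temperature with the His-tagged BRD4 protein (BD1 44-164 or tandem BD12 1-477) and acetylated H4 peptide. Next, donor and acceptor beads were added at 7.5 μg/ml final. After 30 min, AlphaScreen emission was recorded.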

In a further assay the test system is bromodomain. Put plainly: at least one of the bromodomain cell assays of Example 57. Format: cell-based. Particulars: at least one of the bromodomain cell assays described in Example 57; read-out: IC50 in at least one of the bromodomain cell assays.

Consider `CCOC(=O)c1ccc(-n2cc(CC3CCC(F)(F)CC3)c3cc(-c4c(C)noc4C)cnc32)nc1` [P-0429, ethyl 6-[3-[(4,4-difluorocyclohexyl)methyl]-5-(3,5-dimethylisoxazol-4-yl)pyrrolo[2,3-b]pyridin-1-yl]pyridine-3-carboxylate], for which the IC50 in the assay on MV-4-11 cells is 1 to 10 µM; at BRD4-BD12 (1-477), less than 1 µM; in the assay with bromodomain, less than 10000 nM.

Take `Cc1noc(C)c1-c1cnc2c(c1)c(CC1CCC(F)(F)CC1)cn2-c1ccc(C(=O)O)cn1` [P-0430, 6-[3-[(4,4-difluorocyclohexyl)methyl]-5-(3,5-dimethylisoxazol-4-yl)pyrrolo[2,3-b]pyridin-1-yl]pyridine-3-carboxylic acid]: the IC50 was less than 1 µM in the assay with MV-4-11 cells, less than 1 µM at BRD4-BD12 (1-477) and less than 10000 nM in the assay with bromodomain.

On to `Cc1noc(C)c1-c1cnc2c(-c3ccc(C(=O)O)cc3)cn(Cc3ccccn3)c2c1` [P-0431, 4-[6-(3,5-dimethylisoxazol-4-yl)-1-(2-pyridylmethyl)pyrrolo[3,2-b]pyridin-3-yl]benzoic acid], for which the IC50 with MV-4-11 cells is less than 1 µM; on BRD4-BD12 (1-477), less than 1 µM; with bromodomain it was less than 10000 nM.

As for `Cc1noc(C)c1-c1cnc2c(-c3ccc(C(=O)O)cc3)cn(CC3CC(F)(F)C3)c2c1` [P-0432, 4-[1-[(3,3-difluorocyclobutyl)methyl]-6-(3,5-dimethylisoxazol-4-yl)pyrrolo[3,2-b]pyridin-3-yl]benzoic acid], the IC50 with MV-4-11 cells is less than 1 µM; at BRD4-BD12 (1-477), less than 1 µM; in the assay with bromodomain it was less than 10000 nM.

Consider `Cc1noc(C)c1-c1cnc2c(-c3ccc(C(C)(C)C(=O)O)cc3)cn(CC3CCC(F)(F)CC3)c2c1` [P-0433, 2-[4-[1-[(4,4-difluorocyclohexyl)methyl]-6-(3,5-dimethylisoxazol-4-yl)pyrrolo[3,2-b]pyridin-3-yl]phenyl]-2-methyl-propanoic acid], for which the IC50 is less than 1 µM in the assay on MV-4-11 cells, less than 1 µM on BRD4-BD12 (1-477) and less than 10000 nM in the assay on bromodomain.

In the case of `Cc1noc(C)c1-c1cnc2c(-c3ccc(C#N)cc3)cn(CC3CCC(F)(F)CC3)c2c1` [P-0434, 4-[1-[(4,4-difluorocyclohexyl)methyl]-6-(3,5-dimethylisoxazol-4-yl)pyrrolo[3,2-b]pyridin-3-yl]benzonitrile], the results for the IC50 with MV-4-11 cells, on BRD4-BD12 (1-477) and in the assay on bromodomain were less than 1 µM, less than 1 µM and less than 10000 nM, respectively.

As for `COC(=O)c1ccc(-c2cn(Cc3ccccn3)c3cc(-c4c(C)noc4C)cnc23)cc1` [P-0435, methyl 4-[6-(3,5-dimethylisoxazol-4-yl)-1-(2-pyridylmethyl)pyrrolo[3,2-b]pyridin-3-yl]benzoate], the IC50 in the assay with MV-4-11 cells is less than 1 µM; at BRD4-BD12 (1-477), less than 1 µM; in the assay with bromodomain, less than 10000 nM.

With `Cn1cc(-c2cnc3c(-c4cnn(CC(F)(F)F)c4)cn(CC4CCC(F)(F)CC4)c3c2)ccc1=O` [P-0436, 5-[1-[(4,4-difluorocyclohexyl)methyl]-3-[1-(2,2,2-trifluoroethyl)pyrazol-4-yl]pyrrolo[3,2-b]pyridin-6-yl]-1-methyl-pyridin-2-one], the IC50 in the assay on MV-4-11 cells is less than 1 µM; on BRD4-BD12 (1-477), less than 1 µM; with bromodomain, less than 10000 nM.

`Cn1cc(-c2cn(CC3CCC(F)(F)CC3)c3cc(-c4ccc(O)nc4)cnc23)cn1` [P-0437, 5-[1-[(4,4-difluorocyclohexyl)methyl]-3-(1-methylpyrazol-4-yl)pyrrolo[3,2-b]pyridin-6-yl]pyridin-2-ol]: the results for the IC50 in the assay on MV-4-11 cells, on BRD4-BD12 (1-477) and with bromodomain were less than 1 µM, less than 1 µM and less than 10000 nM, respectively.

Turning to `Cn1cc(-c2cn(CC3CCC(F)(F)CC3)c3cc(-c4ccc(=O)n(C)c4)cnc23)cn1` [P-0438, 5-[1-[(4,4-difluorocyclohexyl)methyl]-3-(1-methylpyrazol-4-yl)pyrrolo[3,2-b]pyridin-6-yl]-1-methyl-pyridin-2-one], the results for the 50% inhibitory concentration (IC50) with MV-4-11 cells, on BRD4-BD12 (1-477) and with bromodomain were less than 1 µM, less than 1 µM and less than 10000 nM, respectively.

For `Cc1n[nH]c(C)c1-c1cnc2c(-c3cnn(CC(F)(F)F)c3)cn(CC3CCC(F)(F)CC3)c2c1` [P-0440], the IC50 with MV-4-11 cells was less than 1 µM; on BRD4-BD12 (1-477) it was less than 1 µM; in the assay on bromodomain, less than 10000 nM.

As to `CCOC(=O)c1ccc(-n2cc(CC3CCC(F)(F)CC3)c3cc(-c4c(C)noc4C)cnc32)c(F)c1` [P-0441, ethyl 4-[3-[(4,4-difluorocyclohexyl)methyl]-5-(3,5-dimethylisoxazol-4-yl)pyrrolo[2,3-b]pyridin-1-yl]-3-fluoro-benzoate], the IC50 was 1 to 10 µM in the assay with MV-4-11 cells, less than 1 µM at BRD4-BD12 (1-477) and less than 10000 nM in the assay with bromodomain.

In the case of `Cc1noc(C)c1-c1cnc2c(c1)c(CC1CCC(F)(F)CC1)cn2-c1ccc(C(=O)O)cc1F` [P-0442, 4-[3-[(4,4-difluorocyclohexyl)methyl]-5-(3,5-dimethylisoxazol-4-yl)pyrrolo[2,3-b]pyridin-1-yl]-3-fluoro-benzoic acid], the values for the IC50 in the assay on MV-4-11 cells, on BRD4-BD12 (1-477) and with bromodomain were less than 1 µM, less than 1 µM and less than 10000 nM, respectively.

`Cc1noc(C)c1-c1cnc2c(c1)c(CC1CCC(F)(F)CC1)cn2-c1ncc(C(=O)O)cn1` [P-0443, 2-[3-[(4,4-difluorocyclohexyl)methyl]-5-(3,5-dimethylisoxazol-4-yl)pyrrolo[2,3-b]pyridin-1-yl]pyrimidine-5-carboxylic acid]: the IC50 is 1 to 10 µM in the assay on MV-4-11 cells, less than 1 µM on BRD4-BD12 (1-477) and less than 10000 nM in the assay with bromodomain.

As for `Cc1noc(C)c1-c1cnc2c(I)cn(CC3(F)CCC(F)(F)CC3)c2c1` [P-0448, 4-[3-iodo-1-[(1,4,4-trifluorocyclohexyl)methyl]pyrrolo[3,2-b]pyridin-6-yl]-3,5-dimethyl-isoxazole], the values for the half-inhibitory concentration (IC50) in the assay with MV-4-11 cells, on BRD4-BD12 (1-477) and with bromodomain were less than 1 µM, less than 1 µM and less than 10000 nM, respectively.

With `Nc1ncc(-c2cnc3c(-c4cnn(CC(F)(F)F)c4)cn(CC4CCC(F)(F)CC4)c3c2)cn1` [P-0451, 5-[1-[(4,4-difluorocyclohexyl)methyl]-3-[1-(2,2,2-trifluoroethyl)pyrazol-4-yl]pyrrolo[3,2-b]pyridin-6-yl]pyrimidin-2-amine], the values for the IC50 in the assay on MV-4-11 cells, on BRD4-BD12 (1-477) and in the assay with bromodomain were 10 to 200 µM, 1 to 10 µM and less than 10000 nM, respectively.

Turning to `COc1ncc(-c2cnc3c(-c4cnn(CC(F)(F)F)c4)cn(CC4CCC(F)(F)CC4)c3c2)s1` [P-0452, 5-[1-[(4,4-difluorocyclohexyl)methyl]-3-[1-(2,2,2-trifluoroethyl)pyrazol-4-yl]pyrrolo[3,2-b]pyridin-6-yl]-2-methoxy-thiazole], the figures for the IC50 with MV-4-11 cells, on BRD4-BD12 (1-477) and with bromodomain were 1 to 10 µM, less than 1 µM and less than 10000 nM, respectively.

For `COC(=O)c1ccc(-c2cn(CC3(F)CCCCC3)c3cc(-c4c(C)noc4C)cnc23)cn1` [P-0453, methyl 5-[6-(3,5-dimethylisoxazol-4-yl)-1-[(1-fluorocyclohexyl)methyl]pyrrolo[3,2-b]pyridin-3-yl]pyridine-2-carboxylate], the IC50 is less than 1 µM in the assay on MV-4-11 cells, less than 1 µM at BRD4-BD12 (1-477) and less than 10000 nM with bromodomain.

Take `COC(=O)c1ccc(-c2cn(CC3(F)CCC(F)(F)CC3)c3cc(-c4c(C)noc4C)cnc23)cn1` [P-0454, methyl 5-[6-(3,5-dimethylisoxazol-4-yl)-1-[(1,4,4-trifluorocyclohexyl)methyl]pyrrolo[3,2-b]pyridin-3-yl]pyridine-2-carboxylate]: the IC50 was less than 1 µM in the assay on MV-4-11 cells, less than 1 µM at BRD4-BD12 (1-477) and less than 10000 nM in the assay with bromodomain.

`Cc1noc(C)c1-c1cnc2c(-c3ccc(C(=O)O)nc3)cn(CC3(F)CCCCC3)c2c1` [P-0455, 5-[6-(3,5-dimethylisoxazol-4-yl)-1-[(1-fluorocyclohexyl)methyl]pyrrolo[3,2-b]pyridin-3-yl]pyridine-2-carboxlic acid]: the IC50 in the assay with MV-4-11 cells was less than 1 µM; on BRD4-BD12 (1-477), less than 1 µM; with bromodomain it was less than 10000 nM.

On to `Cc1noc(C)c1-c1cnc2c(-c3ccc(C(=O)O)nc3)cn(CC3(F)CCC(F)(F)CC3)c2c1` [P-0456, 5-[6-(3,5-dimethylisoxazol-4-yl)-1-[(1,4,4-trifluorocyclohexyl)methyl]pyrrolo[3,2-b]pyridin-3-yl]pyridine-2-carboxylic acid], for which the values for the IC50 with MV-4-11 cells, on BRD4-BD12 (1-477) and with bromodomain were less than 1 µM, less than 1 µM and less than 10000 nM, respectively.

As for `Cc1noc(C)c1-c1cnc2c(-c3ccc(C#N)cc3)cn(CC3(F)CCCCC3)c2c1` [P-0457, 4-[6-(3,5-dimethylisoxazol-4-yl)-1-[(1-fluorocyclohexyl)methyl]pyrrolo[3,2-b]pyridin-3-yl]benzonitrile], the IC50 in the assay on MV-4-11 cells was less than 1 µM; on BRD4-BD12 (1-477), less than 1 µM; in the assay on bromodomain, less than 10000 nM.

Turning to `Cc1noc(C)c1-c1cnc2c(-c3ccc(C#N)cc3)cn(CC3(F)CCC(F)(F)CC3)c2c1` [P-0458, 4-[6-(3,5-dimethylisoxazol-4-yl)-1-[(1,4,4-trifluorocyclohexyl)methyl]pyrrolo[3,2-b]pyridin-3-yl]benzonitrile], the figures for the IC50 in the assay with MV-4-11 cells, on BRD4-BD12 (1-477) and with bromodomain were less than 1 µM, less than 1 µM and less than 10000 nM, respectively.

Turning to `[2H]C([2H])(C1CCC(F)(F)CC1)n1cc(C(=O)O)c2ncc(-c3c(C)noc3C)cc21` [P-0459, 1-[dideuterio-(4,4-difluorocyclohexyl)methyl]-6-(3,5-dimethylisoxazol-4-yl)pyrrolo[3,2-b]pyridine-3-carboxylic acid], the IC50 in the assay on MV-4-11 cells was 1 to 10 µM; on BRD4-BD12 (1-477), less than 1 µM; in the assay on bromodomain, less than 10000 nM.
